# Assay results from the Kinase Knowledgebase extract (Sharma et al. 2016).
# How the values were obtained:
# [1] = biological target: PIK3CB (Human) (UniProt P42338); test: Assessment of PIK3CB Kinase Activity
# [2] = biological target: PIK3CA (human) (UniProt P42336); test: Assessment of PIK3CA Kinase Activity
# Sequence of PIK3CA (human) (P42336 whole entry, looked up): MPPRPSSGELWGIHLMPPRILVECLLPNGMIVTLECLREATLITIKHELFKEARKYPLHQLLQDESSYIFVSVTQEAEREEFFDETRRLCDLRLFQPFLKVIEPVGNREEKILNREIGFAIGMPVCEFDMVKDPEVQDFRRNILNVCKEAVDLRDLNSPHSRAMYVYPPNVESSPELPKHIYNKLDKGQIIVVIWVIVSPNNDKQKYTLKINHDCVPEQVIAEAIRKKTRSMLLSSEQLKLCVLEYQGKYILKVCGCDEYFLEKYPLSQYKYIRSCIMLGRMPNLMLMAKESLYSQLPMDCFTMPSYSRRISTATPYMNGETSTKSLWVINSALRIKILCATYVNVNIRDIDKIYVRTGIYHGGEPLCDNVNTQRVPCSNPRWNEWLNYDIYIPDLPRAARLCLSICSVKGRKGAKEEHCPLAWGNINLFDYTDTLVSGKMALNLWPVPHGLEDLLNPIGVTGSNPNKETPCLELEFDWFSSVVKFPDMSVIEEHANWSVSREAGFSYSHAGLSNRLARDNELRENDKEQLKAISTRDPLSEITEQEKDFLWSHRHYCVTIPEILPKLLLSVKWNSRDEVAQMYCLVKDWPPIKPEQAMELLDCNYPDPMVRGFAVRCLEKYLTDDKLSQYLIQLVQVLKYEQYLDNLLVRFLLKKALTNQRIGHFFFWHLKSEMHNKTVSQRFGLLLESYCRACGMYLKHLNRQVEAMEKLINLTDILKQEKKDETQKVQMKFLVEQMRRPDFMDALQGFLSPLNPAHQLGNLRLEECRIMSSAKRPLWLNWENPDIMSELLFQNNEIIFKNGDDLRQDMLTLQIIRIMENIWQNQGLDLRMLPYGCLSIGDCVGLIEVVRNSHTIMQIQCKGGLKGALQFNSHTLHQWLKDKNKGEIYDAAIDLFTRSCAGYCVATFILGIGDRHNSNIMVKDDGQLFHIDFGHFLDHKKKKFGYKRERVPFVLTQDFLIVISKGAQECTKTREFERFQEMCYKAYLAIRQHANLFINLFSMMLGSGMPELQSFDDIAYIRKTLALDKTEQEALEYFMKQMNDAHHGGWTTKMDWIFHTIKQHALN
# Sequence of PIK3CB (Human) (P42338 whole entry, looked up): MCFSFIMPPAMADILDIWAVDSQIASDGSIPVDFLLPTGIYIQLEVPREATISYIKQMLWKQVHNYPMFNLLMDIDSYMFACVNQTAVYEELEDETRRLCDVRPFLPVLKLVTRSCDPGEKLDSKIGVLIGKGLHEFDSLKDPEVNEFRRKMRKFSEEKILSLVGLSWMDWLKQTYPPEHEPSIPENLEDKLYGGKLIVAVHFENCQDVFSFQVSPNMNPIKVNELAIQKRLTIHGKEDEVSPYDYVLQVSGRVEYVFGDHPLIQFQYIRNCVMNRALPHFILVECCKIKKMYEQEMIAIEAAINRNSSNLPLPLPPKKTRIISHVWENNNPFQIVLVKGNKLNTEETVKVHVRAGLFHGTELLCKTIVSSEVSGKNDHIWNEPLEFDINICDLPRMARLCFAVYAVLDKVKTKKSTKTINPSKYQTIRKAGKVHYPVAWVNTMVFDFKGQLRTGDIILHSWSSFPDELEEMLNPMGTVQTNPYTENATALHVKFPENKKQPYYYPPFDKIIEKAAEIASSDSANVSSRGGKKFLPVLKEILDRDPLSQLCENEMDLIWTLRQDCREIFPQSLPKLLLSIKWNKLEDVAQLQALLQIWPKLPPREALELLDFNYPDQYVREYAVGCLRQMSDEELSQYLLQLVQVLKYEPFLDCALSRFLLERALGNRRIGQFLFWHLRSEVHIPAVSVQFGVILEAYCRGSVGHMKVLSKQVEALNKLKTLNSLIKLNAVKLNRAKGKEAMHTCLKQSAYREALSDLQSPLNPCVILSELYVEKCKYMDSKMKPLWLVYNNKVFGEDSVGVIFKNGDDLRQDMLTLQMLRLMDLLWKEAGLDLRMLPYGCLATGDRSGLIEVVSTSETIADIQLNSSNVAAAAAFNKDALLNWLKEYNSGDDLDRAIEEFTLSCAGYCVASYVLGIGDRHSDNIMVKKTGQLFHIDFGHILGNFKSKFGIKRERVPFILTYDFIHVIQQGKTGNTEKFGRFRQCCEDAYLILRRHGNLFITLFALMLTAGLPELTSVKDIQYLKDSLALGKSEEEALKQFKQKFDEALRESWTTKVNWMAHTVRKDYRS
SMILES,IC50 [1],IC50 [2]
COc1c(OCCN(C)C)ccc2c1N=C(NC(=O)c1sc(C)nc1C)N1CCN=C21,< 10 nM,< 10 nM
COc1cncc(C(=O)NC2=Nc3c(ccc(OCCCN4CCOCC4)c3OC)C3=NCCN23)c1,< 10 nM,< 10 nM
COc1c(OCCCN2C[C@@H](C)O[C@@H](C)C2)ccc2c1N=C(NC(=O)c1sc(C)nc1C)N1CCN=C21,< 10 nM,< 10 nM
COc1c(OCCCN(C)C)ccc2c1N=C(NC(=O)c1cccnc1)N1CCN=C21,< 10 nM,< 10 nM
COc1c(OCCCN)ccc2c1N=C(NC(=O)c1cccnc1)N1CCN=C21,< 10 nM,< 10 nM
COc1c(OCCCN2CCOCC2)ccc2c1N=C(NC(=O)c1sc(C)nc1C)N1CCN=C21,< 10 nM,< 10 nM
COc1c(OCCCN2CCOCC2)ccc2c1N=C(NC(=O)c1ccnc(N)c1)N1CCN=C21,< 10 nM,< 10 nM
COc1c(OCC2CNCCO2)ccc2c1N=C(NC(=O)c1cccnc1)N1CCN=C21 (centres undefined),< 10 nM,< 10 nM
COc1c(OCCCN2CCOCC2)ccc2c1N=C(NC(=O)c1sc(N)nc1C)N1CCN=C21,< 10 nM,< 10 nM
COc1c(OCCCN2CCOCC2)ccc2c1N=C(NC(=O)c1ccc(N)nc1)N1CCN=C21,< 10 nM,< 10 nM
COCCN1CCOC(CCCOc2ccc3c(c2OC)N=C(NC(=O)c2cccnc2)N2CCN=C32)C1 (centres undefined),< 10 nM,< 10 nM
COc1c(OCCCN2C[C@@H](C)O[C@@H](C)C2)ccc2c1N=C(NC(=O)c1cnc(N)nc1)N1CCN=C21,< 10 nM,< 10 nM
COc1c(OCCCN2CCOCC2)ccc2c1N=C(NC(=O)c1ccc(N)nc1C)N1CCN=C21,< 10 nM,< 10 nM
COc1c(OCCCN2CCOCC2)ccc2c1N=C(NC(=O)c1cnc(N)nc1C)N1CCN=C21,< 10 nM,< 10 nM
COc1c(OCCCN2CCOCC2)ccc2c1N=C(NC(=O)c1ccc(N3CC[C@@H](N)C3)nc1)N1CCN=C21,< 10 nM,< 10 nM
COc1c(OCCCN2CCOCC2)ccc2c1N=C(NC(=O)c1cnc(NCCO)nc1)N1CCN=C21,< 10 nM,< 10 nM
COc1c(OCCN2CCCCC2)ccc2c1N=C(NC(=O)c1cccnc1)N1CCN=C21,< 10 nM,< 10 nM
COc1c(OCCCN2CCOCC2)ccc2c1N=C(NC(=O)c1cnc(N)s1)N1CCN=C21,< 10 nM,< 10 nM
COc1c(OCCCN2CCCCC2)ccc2c1N=C(NC(=O)c1cccnc1)N1CCN=C21,< 10 nM,< 10 nM
COc1c(OCCCN(C)C)ccc2c1N=C(NC(=O)c1ccc[n+]([O-])c1)N1CCN=C21,,< 10 nM

SMILES,IC50 [1],IC50 [2]
COc1c(OCC2CN(C)CCO2)ccc2c1N=C(NC(=O)c1cccnc1)N1CCN=C21 (centres undefined),< 10 nM,< 10 nM
COc1c(OCCCN2CCOCC2)ccc2c1N=C(NC(=O)c1cnc(N)o1)N1CCN=C21,< 10 nM,< 10 nM
COc1c(OCC(CO)CN2CCOCC2)ccc2c1N=C(NC(=O)c1cccnc1)N1CCN=C21 (centres undefined),< 10 nM,< 10 nM
CCN(CC)CCCOc1ccc2c(c1OC)N=C(NC(=O)c1cccnc1)N1CCN=C21,< 10 nM,< 10 nM
COc1c(OCCCN2C[C@@H](C)O[C@@H](C)C2)ccc2c1N=C(NC(=O)c1ccc(NC(C)=O)nc1)N1CCN=C21,< 10 nM,< 10 nM
CCN(CC)CCOc1ccc2c(c1OC)N=C(NC(=O)c1cccnc1)N1CCN=C21,< 10 nM,< 10 nM
COc1c(OCCCN2CCOC(CO)C2)ccc2c1N=C(NC(=O)c1cccnc1)N1CCN=C21 (centres undefined),< 10 nM,< 10 nM
CCN1CCOC(CCOc2ccc3c(c2OC)N=C(NC(=O)c2cccnc2)N2CCN=C32)C1 (centres undefined),< 10 nM,< 10 nM
COc1c(OCCCN2CCOCC2)ccc2c1N=C(NC(=O)c1cncnc1)N1CCN=C21,< 10 nM,< 10 nM
COc1c(OCCN2CCOCC2)ccc2c1N=C(NC(=O)c1cccnc1)N1CCN=C21,< 10 nM,< 10 nM
COc1c(OCCN(C)C)ccc2c1N=C(NC(=O)c1cccnc1)N1CCN=C21,< 10 nM,< 10 nM
COc1c(OCCCN(C)C)ccc2c1N=C(NC(=O)c1cnc(N)nc1)N1CCN=C21,< 10 nM,< 10 nM
CNCCCOc1ccc2c(c1OC)N=C(NC(=O)c1cccnc1)N1CCN=C21,< 10 nM,< 10 nM
CNC(=O)Nc1ccc(C(=O)NC2=Nc3c(ccc(OCCCN4CCOCC4)c3OC)C3=NCCN23)cn1,< 10 nM,< 10 nM
COc1c(OCCN2CCCC2)ccc2c1N=C(NC(=O)c1cccnc1)N1CCN=C21,< 10 nM,< 10 nM
COc1c(OCCCC2CN(CC3CCC3)CCO2)ccc2c1N=C(NC(=O)c1cccnc1)N1CCN=C21 (centres undefined),< 10 nM,< 10 nM
COc1c(OCCCN2CCOCC2)ccc2c1N=C(NC(=O)c1cccnc1)N1CCN=C21,< 10 nM,< 10 nM
COc1c(OCCCN2C[C@@H](C)O[C@@H](C)C2)ccc2c1N=C(NC(=O)c1cncnc1)N1CCN=C21,< 10 nM,< 10 nM
COc1c(OCCCN2CCOCC2)ccc2c1N=C(NC(=O)c1ccc(N3CC[C@H](N)C3)nc1)N1CCN=C21,< 10 nM,< 10 nM
COc1c(OCCN(C)C)ccc2c1N=C(NC(=O)c1cncnc1)N1CCN=C21,< 10 nM,< 10 nM

SMILES,IC50 [1],IC50 [2]
COc1c(OCCCN2CCOCC2)ccc2c1N=C(NC(=O)c1ccc(NC(=O)C(C)C)nc1)N1CCN=C21,< 10 nM,< 10 nM
COCCNc1ncc(C(=O)NC2=Nc3c(ccc(OCCCN4CCOCC4)c3OC)C3=NCCN23)cn1,< 10 nM,< 10 nM
COCCNc1ccc(C(=O)NC2=Nc3c(ccc(OCCCN4CCOCC4)c3OC)C3=NCCN23)cn1,< 10 nM,< 10 nM
COc1c(OCCCN2CCOCC2)ccc2c1N=C(NC(=O)c1ccc(NC(=O)NC(C)C)nc1)N1CCN=C21,< 10 nM,< 10 nM
COc1c(OCCCN(C)C)ccc2c1N=C(NC(=O)c1ccc(N)nc1)N1CCN=C21,< 10 nM,< 10 nM
COc1c(OCCCN2CCOCC2)ccc2c1N=C(NC(=O)c1ccc(F)nc1)N1CCN=C21,< 10 nM,< 10 nM
COc1c(OCCCN2CCOCC2)ccc2c1N=C(NC(=O)c1ccc(N(C)C)nc1)N1CCN=C21,< 10 nM,< 10 nM
COCCN1CCOC(COc2ccc3c(c2OC)N=C(NC(=O)c2cccnc2)N2CCN=C32)C1 (centres undefined),< 10 nM,< 10 nM
COc1c(OCCCN2C[C@@H](C)O[C@@H](C)C2)ccc2c1N=C(NC(=O)c1ccc(C)nc1)N1CCN=C21,< 10 nM,< 10 nM
COc1c(OCCCN2CCOCC2)ccc2c1N=C(NC(=O)c1cncn1C)N1CCN=C21,< 10 nM,< 10 nM
COc1c(OCCCN2C[C@@H](C)O[C@@H](C)C2)ccc2c1N=C(NC(=O)c1ccc(N)nc1)N1CCN=C21,< 10 nM,< 10 nM
COc1c(OCCCN(C)C)ccc2c1N=C(NC(=O)c1cnc(NCCN(C)C)nc1)N1CCN=C21,< 10 nM,< 10 nM
CCCc1nc(N)ncc1C(=O)NC1=Nc2c(ccc(OCCCN3CCOCC3)c2OC)C2=NCCN12,< 10 nM,< 10 nM
COc1c(OCCCN2C[C@@H](C)O[C@@H](C)C2)ccc2c1N=C(NC(=O)c1cccnc1)N1CCN=C21,< 10 nM,< 10 nM
COc1c(OCCCN2CCOCC2)ccc2c1N=C(NC(=O)c1ccc(NCc3ccco3)nc1)N1CCN=C21,< 10 nM,< 10 nM
COc1c(OCCCN2CCOCC2)ccc2c1N=C(NC(=O)c1cnc(N)c(Br)c1)N1CCN=C21,< 10 nM,< 10 nM
COc1c(OCCCN2CCOCC2)ccc2c1N=C(NC(=O)c1ccc(NC(=O)C3CC3)nc1)N1CCN=C21,< 10 nM,< 10 nM
COc1c(OCCCN2CCOCC2)ccc2c1N=C(NC(=O)c1ccc(C)nc1)N1CCN=C21,< 10 nM,< 10 nM
COc1c(OCCCN2CCOCC2)ccc2c1N=C(NC(=O)c1cnc(NCCN(C)C)nc1)N1CCN=C21,< 10 nM,< 10 nM
COc1c(OCCCN(C)C)ccc2c1N=C(NC(=O)c1cnc(N)s1)N1CCN=C21,< 10 nM,< 10 nM
